Laboratory results: US20230040909A1 (priority 2019, published 2023)
Converted amounts (≈) assume the structure as drawn.

Tested on: M. tb H37Rv
Assay: microbe, parasite or virus in culture
Format: cell-based, Mycobacterium tuberculosis
Settings: not given

SMILES	M. tb H37Rv: MIC-MABA
Cc1cc(C)c2cc(C(=O)NC3CC[Si](C)(C)C3)[nH]c2c1 (single isomer, unassigned) [MPL-296A]	0.0007- μg/mL
Cc1cc(C)c2cc(C(=O)NC3CC[Si](C)(C)C3)[nH]c2c1 (single isomer, unassigned) [MPL-296B]	0.052- μg/mL

Same assay, conditions: Mycobacterium tuberculosis, H37RV; read-out: M. tb H37Rv: MIC-MABA

SMILES	MIC
C[Si]1(C)CCC(NC(=O)c2cc3c(Cl)cc(Cl)cc3[nH]2)CC1 [MPL-203, 4,6-dichloro-N-(1,1-dimethylsilinan-4-yl)-1H-Indole-2-carboxamide]	0.0033 µg/mL (≈ 0.00929 µM)
C[Si]1(C)CCC(NC(=O)c2cc3c(F)cc(F)cc3[nH]2)CC1 [MPL-204, N-(1,1-dimethylsilinan-4-yl)-4,6-difluoro-1H-indole-2-carboxamide]	0.0035 µg/mL (≈ 0.0109 µM)
Cc1c(C(=O)NC2CC[Si](C)(C)CC2)[nH]c2cc(F)cc(F)c12 [MPL-335, N-(1,1-dimethylsilinan-4-yl)-4,6-difluoro-3-methyl-1H-indole-2-carboxamide]	< 0.004 µg/mL
C[Si]1(C)CCC(NC(=O)c2cc3c(C(F)(F)F)cc(C(F)(F)F)cc3[nH]2)CC1 [MPL-336, N-(1,1-dimethylsilinan-4-yl)-4,6-bis(trifluoromethyl)-1H-indole-2-carboxamide]	0.0306 µg/mL (≈ 0.0724 µM)
Cc1cc(Br)c2cc(C(=O)NC3CC[Si](C)(C)CC3)[nH]c2c1 [MPL-337, 4-bromo-N-(1,1-dimethylsilinan-4-yl)-6-methyl-1H-indole-2-carboxamide]	0.007 µg/mL (≈ 0.0185 µM)
Cc1cc(Br)cc2[nH]c(C(=O)NC3CC[Si](C)(C)CC3)cc12 [MPL-338, 6-bromo-N-(1,1-dimethylsilinan-4-yl)-4-methyl-1H-indole-2-carboxamide]	< 0.004 µg/mL
C[Si]1(C)CCC(NC(=O)c2cc3c(Br)cc(C(F)(F)F)cc3[nH]2)CC1 [MPL-339, 4-bromo-N-(1,1-dimethylsilinan-4-yl)-6-(trifluoromethyl)-1H-indole-2-carboxamide]	< 0.004 µg/mL
Cc1cc(C#N)cc2[nH]c(C(=O)NC3CC[Si](C)(C)CC3)cc12 [MPL-340, 6-cyano-N-(1,1-dimethylsilinan-4-yl)-4-methyl-1H-indole-2-carboxamide]	< 0.004 µg/mL

Target: hERG (Homo sapiens, UniProt Q12809)
Sequence (Q12809 whole entry): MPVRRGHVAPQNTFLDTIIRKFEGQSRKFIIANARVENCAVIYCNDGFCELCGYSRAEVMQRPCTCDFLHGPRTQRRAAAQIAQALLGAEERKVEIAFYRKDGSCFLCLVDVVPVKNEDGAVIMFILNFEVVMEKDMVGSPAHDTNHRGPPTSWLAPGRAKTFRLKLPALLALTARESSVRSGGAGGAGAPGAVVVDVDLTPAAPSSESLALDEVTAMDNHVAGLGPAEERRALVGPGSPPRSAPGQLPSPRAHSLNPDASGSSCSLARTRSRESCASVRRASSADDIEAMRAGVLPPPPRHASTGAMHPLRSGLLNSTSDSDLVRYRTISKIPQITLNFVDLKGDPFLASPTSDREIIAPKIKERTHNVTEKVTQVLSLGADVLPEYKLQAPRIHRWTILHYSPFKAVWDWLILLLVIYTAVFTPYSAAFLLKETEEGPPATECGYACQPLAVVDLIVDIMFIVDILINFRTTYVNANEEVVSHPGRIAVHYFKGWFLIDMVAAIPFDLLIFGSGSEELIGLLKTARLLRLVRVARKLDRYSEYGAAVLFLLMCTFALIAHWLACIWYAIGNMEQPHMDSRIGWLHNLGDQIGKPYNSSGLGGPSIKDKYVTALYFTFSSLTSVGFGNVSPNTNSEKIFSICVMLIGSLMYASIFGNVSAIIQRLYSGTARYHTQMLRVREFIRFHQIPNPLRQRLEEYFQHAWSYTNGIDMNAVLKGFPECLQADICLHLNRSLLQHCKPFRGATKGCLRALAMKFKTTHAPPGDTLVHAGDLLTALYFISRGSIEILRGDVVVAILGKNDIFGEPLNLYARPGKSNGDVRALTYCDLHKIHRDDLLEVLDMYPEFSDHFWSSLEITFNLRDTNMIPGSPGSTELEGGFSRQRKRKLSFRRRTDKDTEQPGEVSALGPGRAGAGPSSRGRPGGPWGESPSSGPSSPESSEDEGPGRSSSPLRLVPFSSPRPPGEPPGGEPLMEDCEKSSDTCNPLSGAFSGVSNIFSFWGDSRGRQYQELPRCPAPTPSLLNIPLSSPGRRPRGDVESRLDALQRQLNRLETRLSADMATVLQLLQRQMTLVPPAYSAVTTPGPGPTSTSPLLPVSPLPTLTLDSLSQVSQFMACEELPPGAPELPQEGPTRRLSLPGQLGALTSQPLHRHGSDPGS
Assay: biochemical
Settings: hERG IC50, Table 3

SMILES	IC50
C[Si]1(C)CCC(NC(=O)c2cc3c(Cl)cc(Cl)cc3[nH]2)CC1 [MPL-203, 4,6-dichloro-N-(1,1-dimethylsilinan-4-yl)-1H-Indole-2-carboxamide]	> 10 µM
C[Si]1(C)CCC(NC(=O)c2cc3c(F)cc(F)cc3[nH]2)CC1 [MPL-204, N-(1,1-dimethylsilinan-4-yl)-4,6-difluoro-1H-indole-2-carboxamide]	> 10 µM

Tested on: not listed separately
Assay: VERO cell cytotoxicity
Format: cell-based
Settings: African green monkey, VERO cells
From the text: (§1) The procedures described in Falzari 2005 were used to generate the data shown in column 2 of Table 4.

SMILES	IC50
C[Si]1(C)CCC(NC(=O)c2cc3c(Cl)cc(Cl)cc3[nH]2)CC1 [MPL-203, 4,6-dichloro-N-(1,1-dimethylsilinan-4-yl)-1H-Indole-2-carboxamide]	> 32 µg/mL
C[Si]1(C)CCC(NC(=O)c2cc3c(F)cc(F)cc3[nH]2)CC1 [MPL-204, N-(1,1-dimethylsilinan-4-yl)-4,6-difluoro-1H-indole-2-carboxamide]	> 32 µg/mL
Cc1c(C(=O)NC2CC[Si](C)(C)CC2)[nH]c2cc(F)cc(F)c12 [MPL-335, N-(1,1-dimethylsilinan-4-yl)-4,6-difluoro-3-methyl-1H-indole-2-carboxamide]	> 20 µg/mL
C[Si]1(C)CCC(NC(=O)c2cc3c(C(F)(F)F)cc(C(F)(F)F)cc3[nH]2)CC1 [MPL-336, N-(1,1-dimethylsilinan-4-yl)-4,6-bis(trifluoromethyl)-1H-indole-2-carboxamide]	> 20 µg/mL
Cc1cc(Br)c2cc(C(=O)NC3CC[Si](C)(C)CC3)[nH]c2c1 [MPL-337, 4-bromo-N-(1,1-dimethylsilinan-4-yl)-6-methyl-1H-indole-2-carboxamide]	> 20 µg/mL
Cc1cc(Br)cc2[nH]c(C(=O)NC3CC[Si](C)(C)CC3)cc12 [MPL-338, 6-bromo-N-(1,1-dimethylsilinan-4-yl)-4-methyl-1H-indole-2-carboxamide]	> 20 µg/mL
C[Si]1(C)CCC(NC(=O)c2cc3c(Br)cc(C(F)(F)F)cc3[nH]2)CC1 [MPL-339, 4-bromo-N-(1,1-dimethylsilinan-4-yl)-6-(trifluoromethyl)-1H-indole-2-carboxamide]	> 20 µg/mL
Cc1cc(C#N)cc2[nH]c(C(=O)NC3CC[Si](C)(C)CC3)cc12 [MPL-340, 6-cyano-N-(1,1-dimethylsilinan-4-yl)-4-methyl-1H-indole-2-carboxamide]	> 20 µg/mL

Tested on: VERO Cell
Assay: VERO cell cytotoxicity
Format: cell-based
Settings: not given
From the text: as §1

SMILES	VERO Cell: Cytotoxicity-IC50
Cc1cc(C)c2cc(C(=O)NC3CC[Si](C)(C)C3)[nH]c2c1 (single isomer, unassigned) [MPL-296A]	>64 µg/mL
Cc1cc(C)c2cc(C(=O)NC3CC[Si](C)(C)C3)[nH]c2c1 (single isomer, unassigned) [MPL-296B]	>64 µg/mL

Target: hCav1.2 (Homo sapiens, UniProt Q13936)
Assay: biochemical
Settings: Table 3

SMILES	IC50
C[Si]1(C)CCC(NC(=O)c2cc3c(Cl)cc(Cl)cc3[nH]2)CC1 [MPL-203, 4,6-dichloro-N-(1,1-dimethylsilinan-4-yl)-1H-Indole-2-carboxamide]	> 10 µM
C[Si]1(C)CCC(NC(=O)c2cc3c(F)cc(F)cc3[nH]2)CC1 [MPL-204, N-(1,1-dimethylsilinan-4-yl)-4,6-difluoro-1H-indole-2-carboxamide]	> 10 µM

Target: hNav1.5 Late (Homo sapiens, UniProt Q14524)
Sequence (Q14524 whole entry): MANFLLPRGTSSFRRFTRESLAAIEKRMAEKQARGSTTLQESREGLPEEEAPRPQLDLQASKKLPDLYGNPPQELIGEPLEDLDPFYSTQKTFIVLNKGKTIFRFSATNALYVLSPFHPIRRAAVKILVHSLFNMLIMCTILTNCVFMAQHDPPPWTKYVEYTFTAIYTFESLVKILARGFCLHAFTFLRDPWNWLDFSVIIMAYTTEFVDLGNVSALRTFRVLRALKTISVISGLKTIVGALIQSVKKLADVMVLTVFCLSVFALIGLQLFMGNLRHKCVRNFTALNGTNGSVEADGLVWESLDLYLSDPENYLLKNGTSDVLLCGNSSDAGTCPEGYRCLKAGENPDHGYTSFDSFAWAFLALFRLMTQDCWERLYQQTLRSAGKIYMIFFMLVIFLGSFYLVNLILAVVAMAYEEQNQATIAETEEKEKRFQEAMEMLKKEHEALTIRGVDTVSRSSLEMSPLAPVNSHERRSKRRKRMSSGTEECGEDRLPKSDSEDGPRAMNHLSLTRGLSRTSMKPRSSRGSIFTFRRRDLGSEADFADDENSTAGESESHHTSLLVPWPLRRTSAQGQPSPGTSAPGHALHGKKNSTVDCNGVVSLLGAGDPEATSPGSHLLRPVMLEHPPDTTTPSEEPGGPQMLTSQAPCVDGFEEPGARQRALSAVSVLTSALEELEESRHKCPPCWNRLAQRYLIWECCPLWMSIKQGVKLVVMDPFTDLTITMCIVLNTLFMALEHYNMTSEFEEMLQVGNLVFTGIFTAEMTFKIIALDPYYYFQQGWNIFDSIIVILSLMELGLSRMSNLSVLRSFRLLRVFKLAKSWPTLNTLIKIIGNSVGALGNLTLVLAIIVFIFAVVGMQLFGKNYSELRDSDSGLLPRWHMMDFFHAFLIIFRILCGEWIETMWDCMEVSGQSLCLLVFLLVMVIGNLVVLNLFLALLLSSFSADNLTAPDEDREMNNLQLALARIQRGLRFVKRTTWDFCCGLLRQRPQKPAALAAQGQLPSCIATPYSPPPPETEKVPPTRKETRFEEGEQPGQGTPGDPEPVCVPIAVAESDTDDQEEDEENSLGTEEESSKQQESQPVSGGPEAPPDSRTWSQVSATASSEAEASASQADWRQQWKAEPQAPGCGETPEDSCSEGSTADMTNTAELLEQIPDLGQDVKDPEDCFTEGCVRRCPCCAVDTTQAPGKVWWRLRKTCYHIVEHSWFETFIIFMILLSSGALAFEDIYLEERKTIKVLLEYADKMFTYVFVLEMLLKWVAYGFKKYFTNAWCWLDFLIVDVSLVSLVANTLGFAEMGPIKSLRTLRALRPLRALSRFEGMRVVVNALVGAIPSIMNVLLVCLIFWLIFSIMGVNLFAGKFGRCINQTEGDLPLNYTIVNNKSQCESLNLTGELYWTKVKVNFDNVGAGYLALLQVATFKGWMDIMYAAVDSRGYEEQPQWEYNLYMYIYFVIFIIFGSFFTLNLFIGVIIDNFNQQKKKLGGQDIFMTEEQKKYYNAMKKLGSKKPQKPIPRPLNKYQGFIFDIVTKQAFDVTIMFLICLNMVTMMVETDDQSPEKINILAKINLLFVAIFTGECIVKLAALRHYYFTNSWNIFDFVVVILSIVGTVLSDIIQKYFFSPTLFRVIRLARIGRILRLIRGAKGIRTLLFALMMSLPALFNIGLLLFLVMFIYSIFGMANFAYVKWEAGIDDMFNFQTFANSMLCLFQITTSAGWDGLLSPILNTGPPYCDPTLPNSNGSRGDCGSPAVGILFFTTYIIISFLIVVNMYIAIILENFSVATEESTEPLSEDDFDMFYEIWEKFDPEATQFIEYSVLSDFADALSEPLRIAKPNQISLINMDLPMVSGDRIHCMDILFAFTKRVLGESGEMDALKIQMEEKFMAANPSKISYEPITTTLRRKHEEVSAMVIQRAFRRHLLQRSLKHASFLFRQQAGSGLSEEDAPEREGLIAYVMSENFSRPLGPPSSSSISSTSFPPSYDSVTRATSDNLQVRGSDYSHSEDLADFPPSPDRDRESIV
Assay: In vitro assessment of ion channels: hNav1.5 Late
Format: biochemical
Settings: Table 3; read-out: hNav1.5 Late IC50

SMILES	IC50
C[Si]1(C)CCC(NC(=O)c2cc3c(Cl)cc(Cl)cc3[nH]2)CC1 [MPL-203, 4,6-dichloro-N-(1,1-dimethylsilinan-4-yl)-1H-Indole-2-carboxamide]	> 10 µM
C[Si]1(C)CCC(NC(=O)c2cc3c(F)cc(F)cc3[nH]2)CC1 [MPL-204, N-(1,1-dimethylsilinan-4-yl)-4,6-difluoro-1H-indole-2-carboxamide]	> 10 µM

Tested on: M. tb H37Rv
Assay: microbe, parasite or virus in culture
Format: cell-based
Settings: Mycobacterium tuberculosis, read-out: M. tb H37Rv: MIC-LORA

SMILES	MIC
C[Si]1(C)CCC(NC(=O)c2cc3c(Cl)cc(Cl)cc3[nH]2)CC1 [MPL-203, 4,6-dichloro-N-(1,1-dimethylsilinan-4-yl)-1H-Indole-2-carboxamide]	> 32 µg/mL
C[Si]1(C)CCC(NC(=O)c2cc3c(F)cc(F)cc3[nH]2)CC1 [MPL-204, N-(1,1-dimethylsilinan-4-yl)-4,6-difluoro-1H-indole-2-carboxamide]	> 32 µg/mL
Cc1c(C(=O)NC2CC[Si](C)(C)CC2)[nH]c2cc(F)cc(F)c12 [MPL-335, N-(1,1-dimethylsilinan-4-yl)-4,6-difluoro-3-methyl-1H-indole-2-carboxamide]	> 20 µg/mL
C[Si]1(C)CCC(NC(=O)c2cc3c(C(F)(F)F)cc(C(F)(F)F)cc3[nH]2)CC1 [MPL-336, N-(1,1-dimethylsilinan-4-yl)-4,6-bis(trifluoromethyl)-1H-indole-2-carboxamide]	> 20 µg/mL
Cc1cc(Br)c2cc(C(=O)NC3CC[Si](C)(C)CC3)[nH]c2c1 [MPL-337, 4-bromo-N-(1,1-dimethylsilinan-4-yl)-6-methyl-1H-indole-2-carboxamide]	> 20 µg/mL
Cc1cc(Br)cc2[nH]c(C(=O)NC3CC[Si](C)(C)CC3)cc12 [MPL-338, 6-bromo-N-(1,1-dimethylsilinan-4-yl)-4-methyl-1H-indole-2-carboxamide]	> 20 µg/mL
C[Si]1(C)CCC(NC(=O)c2cc3c(Br)cc(C(F)(F)F)cc3[nH]2)CC1 [MPL-339, 4-bromo-N-(1,1-dimethylsilinan-4-yl)-6-(trifluoromethyl)-1H-indole-2-carboxamide]	> 20 µg/mL
Cc1cc(C#N)cc2[nH]c(C(=O)NC3CC[Si](C)(C)CC3)cc12 [MPL-340, 6-cyano-N-(1,1-dimethylsilinan-4-yl)-4-methyl-1H-indole-2-carboxamide]	> 20 µg/mL

Tested on: M. tb H37Rv
Assay: not given
Format: cell-based, Mycobacterium tuberculosis
Settings: not given

SMILES	MIC
C[Si]1(C)CCC(NC(=O)c2cc3c(Cl)cc(Cl)cc3[nH]2)CC1 [MPL-203, 4,6-dichloro-N-(1,1-dimethylsilinan-4-yl)-1H-Indole-2-carboxamide]	0.003 µg/mL (≈ 0.00844 µM)
C[Si]1(C)CCC(NC(=O)c2cc3c(F)cc(F)cc3[nH]2)CC1 [MPL-204, N-(1,1-dimethylsilinan-4-yl)-4,6-difluoro-1H-indole-2-carboxamide]	0.003 µg/mL (≈ 0.0093 µM)

Target: hNav1.5 Peak (Homo sapiens, UniProt Q14524)
Assay: In vitro assessment of ion channels: hNav1.5 Peak
Format: biochemical
Settings: Table 3

SMILES	IC50
C[Si]1(C)CCC(NC(=O)c2cc3c(Cl)cc(Cl)cc3[nH]2)CC1 [MPL-203, 4,6-dichloro-N-(1,1-dimethylsilinan-4-yl)-1H-Indole-2-carboxamide]	> 10 µM
C[Si]1(C)CCC(NC(=O)c2cc3c(F)cc(F)cc3[nH]2)CC1 [MPL-204, N-(1,1-dimethylsilinan-4-yl)-4,6-difluoro-1H-indole-2-carboxamide]	> 10 µM

Tested on: Mycobacterium abscessus
Assay: M. ab_ATCC MIC MHII
Format: cell-based
Settings: not given
From the text: The procedure described in Franz 2017 was used to generate the data shown in column 5 of Table 4.

SMILES	M. ab_ATCC: MIC MHII: MIC
Cc1cc(C)c2cc(C(=O)NC3CC[Si](C)(C)C3)[nH]c2c1 (single isomer, unassigned) [MPL-296A]	<0.063 µg/mL
Cc1cc(C)c2cc(C(=O)NC3CC[Si](C)(C)C3)[nH]c2c1 (single isomer, unassigned) [MPL-296B]	0.5 µg/mL

Same assay, conditions: Mycobacteroides abscessus, read-out: M. ab_ATCC: MIC MHII: MIC

SMILES	MIC
C[Si]1(C)CCC(NC(=O)c2cc3c(C(F)(F)F)cc(C(F)(F)F)cc3[nH]2)CC1 [MPL-336, N-(1,1-dimethylsilinan-4-yl)-4,6-bis(trifluoromethyl)-1H-indole-2-carboxamide]	> 64 µg/mL

Same assay, conditions: Mycobacteroides abscessus; read-out: M. ab_ATCC: MIC MHII: MIC

SMILES	MIC
C[Si]1(C)CCC(NC(=O)c2cc3c(Cl)cc(Cl)cc3[nH]2)CC1 [MPL-203, 4,6-dichloro-N-(1,1-dimethylsilinan-4-yl)-1H-Indole-2-carboxamide]	> 64 µg/mL
C[Si]1(C)CCC(NC(=O)c2cc3c(F)cc(F)cc3[nH]2)CC1 [MPL-204, N-(1,1-dimethylsilinan-4-yl)-4,6-difluoro-1H-indole-2-carboxamide]	> 64 µg/mL
Cc1c(C(=O)NC2CC[Si](C)(C)CC2)[nH]c2cc(F)cc(F)c12 [MPL-335, N-(1,1-dimethylsilinan-4-yl)-4,6-difluoro-3-methyl-1H-indole-2-carboxamide]	> 64 µg/mL
Cc1cc(Br)c2cc(C(=O)NC3CC[Si](C)(C)CC3)[nH]c2c1 [MPL-337, 4-bromo-N-(1,1-dimethylsilinan-4-yl)-6-methyl-1H-indole-2-carboxamide]	> 64 µg/mL
Cc1cc(Br)cc2[nH]c(C(=O)NC3CC[Si](C)(C)CC3)cc12 [MPL-338, 6-bromo-N-(1,1-dimethylsilinan-4-yl)-4-methyl-1H-indole-2-carboxamide]	> 64 µg/mL
C[Si]1(C)CCC(NC(=O)c2cc3c(Br)cc(C(F)(F)F)cc3[nH]2)CC1 [MPL-339, 4-bromo-N-(1,1-dimethylsilinan-4-yl)-6-(trifluoromethyl)-1H-indole-2-carboxamide]	> 64 µg/mL
Cc1cc(C#N)cc2[nH]c(C(=O)NC3CC[Si](C)(C)CC3)cc12 [MPL-340, 6-cyano-N-(1,1-dimethylsilinan-4-yl)-4-methyl-1H-indole-2-carboxamide]	> 64 µg/mL

Target: hKCNQ1/MinK (Homo sapiens, UniProt P51787)
Assay: biochemical
Format: biochemical
Settings: not given

SMILES	hKCNQ1 channel inhibition
C[Si]1(C)CCC(NC(=O)c2cc3c(Cl)cc(Cl)cc3[nH]2)CC1 [MPL-203, 4,6-dichloro-N-(1,1-dimethylsilinan-4-yl)-1H-Indole-2-carboxamide]	do not inhibit the hKCNQ1 channel
C[Si]1(C)CCC(NC(=O)c2cc3c(F)cc(F)cc3[nH]2)CC1 [MPL-204, N-(1,1-dimethylsilinan-4-yl)-4,6-difluoro-1H-indole-2-carboxamide]	do not inhibit the hKCNQ1 channel

Same assay, conditions: Table 3

SMILES	IC50
C[Si]1(C)CCC(NC(=O)c2cc3c(Cl)cc(Cl)cc3[nH]2)CC1 [MPL-203, 4,6-dichloro-N-(1,1-dimethylsilinan-4-yl)-1H-Indole-2-carboxamide]	2.71 µM
C[Si]1(C)CCC(NC(=O)c2cc3c(F)cc(F)cc3[nH]2)CC1 [MPL-204, N-(1,1-dimethylsilinan-4-yl)-4,6-difluoro-1H-indole-2-carboxamide]	7.56 µM
